# According to patent publication US20200079758A1, “[4-(PHENYLSULFONYL)PIPERAZIN-1-YL](1H-1,2,3-TRIAZOL-4-YL)METHANONES” (priority 2016, published 2020):
# Target: T1, recombinant human AKR1C3 (Homo sapiens, UniProt P42330)
# T1 construct: GST (cleaved yes); made in house; host or cells: E. coli
# T1 sequence (P42330 1-323): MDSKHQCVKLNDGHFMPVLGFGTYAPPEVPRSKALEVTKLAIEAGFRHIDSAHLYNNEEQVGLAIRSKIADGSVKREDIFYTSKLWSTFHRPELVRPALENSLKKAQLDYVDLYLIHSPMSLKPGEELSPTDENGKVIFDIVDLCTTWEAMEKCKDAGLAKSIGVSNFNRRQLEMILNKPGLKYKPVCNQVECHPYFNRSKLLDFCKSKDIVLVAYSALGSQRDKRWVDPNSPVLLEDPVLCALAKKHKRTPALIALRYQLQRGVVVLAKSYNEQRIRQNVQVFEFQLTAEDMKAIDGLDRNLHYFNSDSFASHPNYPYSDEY
# Test: AKR1C3-inhibitory activity assay (generation of Coumberol from Coumberone)
# Assay type: biochemical
# Conditions: Coumberone 0.3 μM, NADPH 10 μM, 22° C., typically 90 min, average or median values
# Protocol: The AKR1C3-inhibitory activity of the substances of the present invention was measured in the AKR1C3 assay described in the paragraphs below.
# Essentially, the enzyme activity is measured by quantification of the generation of Coumberol from Coumberone (Halim et al. J. AM. CHEM. SOC. 2008, 130:14123-14128 and Yee et al. Proc. Natl. Acad. Sci. USA 2006, 103:13304-13309). In this test, the increase of the highly fluorescent Coumberol by NADPH- (nicotinamide adenine dinucleotide phosphate)-dependent reduction of the non-fluorescent Coumberone by AKR1C3 was determined.
# The enzyme used was recombinant human AKR1C3 (Aldo-keto reductase family 1 member C3; GenBank Accession No. NM_003739). This was expressed in E. coli as GST (glutathione S transferase) fusion protein and purified by glutathione Sepharose affinity chromatography. The GST was removed by digestion with thrombin and subsequent size exclusion chromatography (Dufort, I., Rheault, P., Huang, X F., Soucy, P., and Luu-The, V., Endocrinology 140, 568-574 (1999)).
# For the assay, 50 nl of a 100-fold concentrated solution of the test substance in DMSO were pipetted into a black low-volume 384-well microtiter plate (Greiner Bio-One, Frickenhausen, Germany), 2.5 μl of a solution of AKR1C3 in assay buffer [50 mM potassium phosphate buffer pH 7, 1 mM DTT, 0.0022% (w/v) Pluronic F-127, 0.01% BSA (w/v) and protease inhibitor cocktail (Complete, EDTA-free Protease Inhibitor Cocktail from Roche)] were added and the mixture was incubated for 15 min to allow pre-binding of the substances to the enzyme prior to the enzyme reaction. The enzyme reaction was then started by addition of 2.5 μl of a solution of NADPH (20 μM→final concentration in 5 μl of assay volume is 10 μM) and Coumberone (0.6 μM→final concentration in 5 μl of assay volume is 0.3 μM) in assay buffer, and the resulting mixture was incubated at 22° C. for the reaction time of typically 90 min. The concentration of the AKR1C3 and the reaction time was adapted to the respective activity of the enzyme preparation and adjusted such that the assay was carried out in the linear range. Typical AKR1C3 concentrations were in the region of 1 nM. The reaction was stopped by addition of 2.5 μl of a stop solution consisting of 3 μM EM-1404 as inhibitor (U.S. Pat. No. 6,541,463) in 50 mM HEPES pH7.5 (3 μM EM-1404→final concentration in 7.5 μl of assay volume is 1 μM). The fluorescence of the Coumberole was then measured at 520 nm (excitation at 380 nm) using a suitable measuring instrument (Pherastar from BMG Labtechnologies). The intensity of the fluorescence was used as a measure of the amount of Coumberole formed and thus of the enzyme activity of AKR1C3. The data were normalized (enzyme reaction without inhibitor=0% inhibition; all other assay components, but no enzyme=100% inhibition).
row,SMILES,IC50 [nM]
1,"C[C@@H]1CN(S(=O)(=O)c2ccccc2C#N)[C@@H](C)CN1C(=O)c1cnn[nH]1 (stereo in doubt) [Example 14, 2-{[(2S,5R)-2,5-dimethyl-4-(1H-1,2,3-triazol-5-ylcarbonyl)piperazin-1-yl]sulfonyl}benzonitrile]",439
2,"C[C@@H]1CN(C(=O)c2cnn[nH]2)[C@@H](C)CN1S(=O)(=O)c1ccccc1 [Example 1, [(2S,5R)-2,5-dimethyl-4-(phenylsulfonyl)piperazin-1-yl](1H-1,2,3-triazol-5-yl)methanone]",2
3,"C[C@@H]1CN(C(=O)c2cnn[nH]2)[C@@H](C)CN1S(=O)(=O)c1cc(F)cc(F)c1 [Example 3, {(2S,5R)-4-[(3,5-difluorophenyl)sulfonyl]-2,5-dimethylpiperazin-1-yl}(1H-1,2,3-triazol-5-yl)methanone]",1
4,"C[C@@H]1CN(C(=O)c2cnn[nH]2)[C@@H](C)CN1S(=O)(=O)c1cc(Cl)ccc1Cl [Example 4, {(2S,5R)-4-[(2,5-dichlorophenyl)sulfonyl]-2,5-dimethylpiperazin-1-yl}(1H-1,2,3-triazol-5-yl)methanone]",2
5,"C[C@@H]1CN(C(=O)c2cnn[nH]2)[C@@H](C)CN1S(=O)(=O)c1ccccc1F [Example 5, {(2S,5R)-4-[(2-fluorophenyl)sulfonyl]-2,5-dimethylpiperazin-1-yl}(1H-1,2,3-triazol-5-yl)methanone]",2
6,"C[C@@H]1CN(C(=O)c2cnn[nH]2)[C@@H](C)CN1S(=O)(=O)c1ccccc1C(F)(F)F [Example 6, [(2S,5R)-2,5-dimethyl-4-{[2-(trifluoromethyl)phenyl]sulfonyl}piperazin-1-yl](1H-1,2,3-triazol-5-yl)methanone]",2
7,"C[C@@H]1CN(C(=O)c2cnn[nH]2)[C@@H](C)CN1S(=O)(=O)c1cccc(F)c1 [Example 7, sodium 5-({(2S,5R)-4-[(3-fluorophenyl)sulfonyl]-2,5-dimethylpiperazin-1-yl}carbonyl)-1,2,3-triazol-1-ide]",1
8,"C[C@@H]1CN(C(=O)c2c[nH]nn2)[C@@H](C)CN1S(=O)(=O)c1cccc(S(F)(F)(F)(F)F)c1 [Example 8, [(2S,5R)-2,5-dimethyl-4-{[3-(pentafluoro-λ^6-sulfanyl)phenyl]sulfonyl}piperazin-1-yl](1H-1,2,3-triazol-4-yl)methanone]",1
9,"C[C@@H]1CN(C(=O)c2c[nH]nn2)[C@@H](C)CN1S(=O)(=O)c1cccc(Cl)c1F [Example 9, {(2S,5R)-4-[(3-chloro-2-fluorophenyl)sulfonyl]-2,5-dimethylpiperazin-1-yl}(1H-1,2,3-triazol-4-yl)methanone]",1
10,"C[C@@H]1CN(C(=O)c2c[nH]nn2)[C@@H](C)CN1S(=O)(=O)c1ccc(Cl)s1 [Example 10, {(2S,5R)-4-[(5-chlorothiophen-2-yl)sulfonyl]-2,5-dimethylpiperazin-1-yl}(1H-1,2,3-triazol-4-yl)methanone]",3
11,"C[C@@H]1CN(C(=O)c2c[nH]nn2)[C@@H](C)CN1S(=O)(=O)c1cccnc1 [Example 11, [(2S,5R)-2,5-dimethyl-4-(pyridin-3-ylsulfonyl)piperazin-1-yl](1H-1,2,3-triazol-5-yl)methanone]",77
12,"C[C@@H]1CN(C(=O)c2c[nH]nn2)[C@@H](C)CN1S(=O)(=O)c1cccc(C(F)(F)F)c1 [Example 12, [(2S,5R)-2,5-dimethyl-4-{[3-(trifluoromethyl)phenyl]sulfonyl}piperazin-1-yl](1H-1,2,3-triazol-4-yl)methanone]",1
13,"C[C@@H]1CN(C(=O)c2c[nH]nn2)[C@@H](C)CN1S(=O)(=O)c1cc(F)ccc1F [Example 13, {(2S,5R)-4-[(2,5-difluorophenyl)sulfonyl]-2,5-dimethylpiperazin-1-yl}(1H-1,2,3-triazol-4-yl)methanone]",2
14,"C[C@@H]1CN(C(=O)c2cnn[nH]2)[C@@H](C)CN1S(=O)(=O)c1ccc(C#N)cc1 [Example 15, 4-{[(2R,5S)-2,5-dimethyl-4-(1H-1,2,3-triazol-5-ylcarbonyl)piperazin-1-yl]sulfonyl}benzonitrile]",55
15,"COc1ccccc1S(=O)(=O)N1C[C@H](C)N(C(=O)c2cnn[nH]2)C[C@H]1C [Example 16, {(2S,5R)-4-[(2-methoxyphenyl)sulfonyl]-2,5-dimethylpiperazin-1-yl}(1H-1,2,3-triazol-5-yl)methanone]",4
16,"C[C@@H]1CN(C(=O)c2cnn[nH]2)[C@@H](C)CN1S(=O)(=O)c1ccc(O)cc1 [Example 17, {(2S,5R)-4-[(4-hydroxyphenyl)sulfonyl]-2,5-dimethylpiperazin-1-yl}(1H-1,2,3-triazol-5-yl)methanone]",12
17,"C[C@@H]1CN(S(=O)(=O)c2ccccc2)C[C@H](C)N1C(=O)c1c[nH]nn1 [Example 18, [(2R,6S)-2,6-dimethyl-4-(phenylsulfonyl)piperazin-1-yl](1H-1,2,3-triazol-4-yl)methanone]",11
18,"CC1(C)CN(C(=O)c2c[nH]nn2)CCN1S(=O)(=O)c1ccccc1 [Example 19, [3,3-dimethyl-4-(phenylsulfonyl)piperazin-1-yl](1H-1,2,3-triazol-4-yl)methanone]",17
19,"CC1(C)CN(C(=O)c2c[nH]nn2)CCN1S(=O)(=O)c1cccc(F)c1 [Example 20, {4-[(3-fluorophenyl)sulfonyl]-3,3-dimethylpiperazin-1-yl}(1H-1,2,3-triazol-4-yl)methanone]",11
20,"CC1(C)CN(C(=O)c2c[nH]nn2)CCN1S(=O)(=O)c1cccc(Cl)c1 [Example 21, {4-[(3-chlorophenyl)sulfonyl]-3,3-dimethylpiperazin-1-yl}(1H-1,2,3-triazol-4-yl)methanone]",3
21,"Cc1cc(C)cc(S(=O)(=O)N2CCN(C(=O)c3c[nH]nn3)CC2(C)C)c1 [Example 22, {4-[(3,5-dimethylphenyl)sulfonyl]-3,3-dimethylpiperazin-1-yl}(1H-1,2,3-triazol-4-yl)methanone]",2
22,"CC1(C)CN(C(=O)c2c[nH]nn2)CCN1S(=O)(=O)c1cccc(Br)c1 [Example 23, {4-[(3-bromophenyl)sulfonyl]-3,3-dimethylpiperazin-1-yl}(1H-1,2,3-triazol-4-yl)methanone]",2
23,"CC1(C)CN(C(=O)c2c[nH]nn2)CCN1S(=O)(=O)c1cccc(Cl)c1F [Example 24, {4-[(3-chloro-2-fluorophenyl)sulfonyl]-3,3-dimethylpiperazin-1-yl}(1H-1,2,3-triazol-4-yl)methanone]",8
24,"CC1(C)CN(C(=O)c2c[nH]nn2)CCN1S(=O)(=O)c1cc(Cl)ccc1Cl [Example 25, {4-[(2,5-dichlorophenyl)sulfonyl]-3,3-dimethylpiperazin-1-yl}(1H-1,2,3-triazol-4-yl)methanone]",7
25,"CC1(C)CN(C(=O)c2c[nH]nn2)CCN1S(=O)(=O)c1cc(Cl)cc(Cl)c1 [Example 26, {4-[(3,5-dichlorophenyl)sulfonyl]-3,3-dimethylpiperazin-1-yl}(1H-1,2,3-triazol-4-yl)methanone]",4
26,"CC1(C)CN(C(=O)c2c[nH]nn2)CCN1S(=O)(=O)c1ccccc1C(F)(F)F [Example 27, (3,3-dimethyl-4-{[2-(trifluoromethyl)phenyl]sulfonyl}piperazin-1-yl)(1H-1,2,3-triazol-4-yl)methanone]",7
27,"CC1(C)CN(C(=O)c2c[nH]nn2)CCN1S(=O)(=O)c1cccc(C(F)(F)F)c1 [Example 28, (3,3-dimethyl-4-{[3-(trifluoromethyl)phenyl]sulfonyl}piperazin-1-yl)(1H-1,2,3-triazol-4-yl)methanone]",3
